In patent US12268727B2, “Bioactive polypeptides for improvements in plant protection, growth and productivity” (priority 2017, dated 2025):
Several values for one entry are separate records, joined by “and”; a condition that tells them apart may be missing. Equal entries are not always repeated. Non-standard residues stand in square brackets, D forms with d. No end group written: not given here. sY = N[C@@H](Cc1ccc(OS(=O)(=O)O)cc1)C(=O)O

What was measured:
[1] = system: reactive oxygen species (ROS) production in soybean leaf tissue; assay: ROS activity assay in soybean leaf tissue (luminol/horseradish peroxidase, RLU); format: cell-based; settings: for Description of ROS activity results (soybean): observed
[2] = system: reactive oxygen species (ROS) production in corn tissue; assay: ROS activity assay in corn tissue (luminol/horseradish peroxidase, RLU)
[3] = system: corn; assay: Foliar application to corn in growth room, plant height (non-stress, heat and water deficit stress); settings: for growth phenotype vs control: foliar (HpaG-like 1 μM, PSKα)
[4] = system: corn; assay: Seed treatment of corn, field yield trials; format: in vivo
[5] = system: soybean; assay: Seed treatment of soybean, field yield trials; format: in vivo
[6] = system: reactive oxygen species (ROS) production in tomato leaf tissue; assay: ROS activity assay in tomato leaf tissue; format: cell-based
Description: Tomato leaves were excised from 4-week-old plants using a cork borer to generate 4 mm disks. Each disc was cut in half using the edge of a razor blade, and then each disc half was floated on 150 μL of water in a 96-well plate to rest overnight. The next day, the water was removed from each well just prior to polypeptide treatment. The Flg polypeptides as described in Table 66 were added to water to bring them to a final concentration of 5 nM (Table 67) and 100 nM (Table 68) in solution with luminol and HRP before adding to each treatment well. To maintain activity, the polypeptides were stored in small aliquots to avoid multiple freezing and thawing. All dilutions to obtain working concentrations were done in ultrapure water. Polypeptide solutions were stored at −20° C. for short term usage or −80° C. for long term storage. RLU values and relative ROS activity (Tables 67, 68) is reported as the average of 4 measurements.

[7] = system: corn; format: in vivo; settings: foliar 0.33 Fl. oz/Ac, V5-V8, first year trials, 10 locations
[8] = system: soybean; assay: Foliar application to soybean, field yield trials; format: in vivo; settings: 11 locations
[9] = Table 33, RLU relative to native Bt.4Q7Flg22 = 100
[10] = Table 35, single polypeptides and combinations, Bt.4Q7Flg22 = 100
[11] = seed treatment on base ST, polypeptide 1.0 μM (cellobiose 1 mM where combined)
[12] = mutant versus native Bt.4Q7Flg22, *(predicted)
[13] = mutant versus native Bt.4Q7Flg22

## A spp.Flg22-B4 (ERLSSGYRINRASDDAAGLAIS)
[1]; [9]
  Avg. Activity (%) Soybean (297 R4) 100 nM polypeptide: 133.1%
[1]; [10]
  Avg. Activity (%) Soybean (297 R4) 100 nM polypeptide: 106.37%
[2]; [9]
  Avg. Activity (%) Corn (5828 YX) 5 nM polypeptide: 78.1%
[2]; [10]
  Avg. Activity (%) Corn (5828 YX) 5 nM polypeptide: 53.64%

## At. PSKα ([sY]I[sY]TQ; listed as Arabidopsis thaliana)
[3]; separate replicated trials, stress environment, HpaG-like 1 μM, At. PSKα 100 nM foliar
  Plant Height (cm) Percentage Change Compared to Control (0.01% surfactant) Stress: +6.1%

## GKLSSGLRINGASDDAAGLAIS (listed as Paenibacillus sp.) [Pa.Flg22]
[4]; 1 uM in slurry, 3 hybrids, 8 locations
  yield gain vs base seed treatment only: 3.57 Bu/Ac
[4]; seed treatment on base ST, BECK's 5828YX, 1 location, four replicated trials, polypeptide 1.0 μM (cellobiose 1 mM where combined)
  Average Yield Bu/Ac: 39.04 Bu/Ac
[4]; seed treatment on base ST, BECK's 5828YX, polypeptide 1.0 μM (cellobiose 1 mM where combined)
  Average Change in Bu/Ac compared to Untreated Control: +11.04 Bu/Ac
[5]; seed treatment on base ST, 1 variety, 1 location, four replicate plots, polypeptide 1.0 μM (cellobiose 1 mM where combined)
  Average Yield Bu/Ac: 41.39 Bu/Ac
[5]; [11]
  Average Change in Bu/Ac compared to Untreated Control: +0.28 Bu/Ac
[1]; [9]
  Avg. Activity (%) Soybean (297 R4) 100 nM polypeptide: 88.6%
[2]; [9]
  Avg. Activity (%) Corn (5828 YX) 5 nM polypeptide: 116.0%

## Syn03Flg22 (QRLSSGKRINSASDDAAGLAIA)
[5]; [11]
  Average Change in Bu/Ac compared to Untreated Control: +2.50 Bu/Ac

## NRLSSGKQINSASDDAAGLAIA (listed as Bacillus manliponensis) [SEQ ID NO: 290]
[1]; [9]
  Avg. Activity (%) Soybean (297 R4) 100 nM polypeptide: 74.6%
[2]; [9]
  Avg. Activity (%) Corn (5828 YX) 5 nM polypeptide: 106.0%

## DRLSSGQRINSASDDAAGLAIA [SEQ ID NO: 579]
[1]; [12]
  Description of ROS activity results (soybean), predicted: K7Q mutation: Strong reduction in ROS
[2]; [12]
  Description of ROS activity results (corn), predicted: K7Q mutation: Strong reduction in ROS

## ESTNILQRMRELAVQSRNDSNSATDREA (listed as Pseudomonas syringae) [Ps.tomato FlgII-28, FlgII-28 from Pseudomonas syringae pv. tomato DC3000]
[6]; 5 nM
  RLU relative to Bt.4Q7Flg22 at the same concentration: ~31 ×
  ROS response: strong ROS response
[6]; 100 nM
  ROS response: strong ROS response

## DRLSSGKRINNASDDAAGLAIA [SEQ ID NO: 294]
[1]; [9]
  Avg. Activity (%) Soybean (297 R4) 100 nM polypeptide: 90.0%

## NRLSSGKRINTAADDAAGLAIS (listed as Burkholderia ubonensis) [SEQ ID NO: 538]
[1]; [9]
  Avg. Activity (%) Soybean (297 R4) 100 nM polypeptide: 91.1%
[2]; [9]
  Avg. Activity (%) Corn (5828 YX) 5 nM polypeptide: 92.9%

## EKLSSGYKINRASDDAAGLAIS (Lysinibacillus spp.) [SEQ ID NO: 581]
[1]; [9]
  Avg. Activity (%) Soybean (297 R4) 100 nM polypeptide: 96.9%
[2]; [9]
  Avg. Activity (%) Corn (5828 YX) 5 nM polypeptide: 36.4%

## QRLSSGKRINSASDDAAGLAIA (listed as Bacillus thuringiensis) [Bt.4Q7Flg22-Syn03]
[1]; [13]
  Description of ROS activity results (soybean): D1Q mutation: Strong ROS activation in
[2]; 0.25-100 nM, tissue not given
  ROS activity compared to native Bt.4Q7Flg22: increased ROS activities
[2]; corn (5 nM) and soybean (100 nM)
  ROS-inducing activity among tested polypeptides: strongest ROS-inducing activity

## L spp.Flg22-L2 (EKLSSGLRINRAGDDAAGLAIS)
[1]; [9]
  Avg. Activity (%) Soybean (297 R4) 100 nM polypeptide: 128.6%
[1]; [10]
  Avg. Activity (%) Soybean (297 R4) 100 nM polypeptide: 138.86%
[2]; [9]
  Avg. Activity (%) Corn (5828 YX) 5 nM polypeptide: 104.5%
[2]; [10]
  Avg. Activity (%) Corn (5828 YX) 5 nM polypeptide: 113.04%

## DRLSSGKRINSASDDAAGLQIA (listed as Bacillus thuringiensis) [SEQ ID NO: 572]
[1]; [13]
  Description of ROS activity results (soybean): A20Q mutation: Negative ROS activation
[2]; mutant versus native Bt.4Q7Flg22, observed
  Description of ROS activity results (corn): A20Q mutation: Negative ROS activation

## LRISTGYRINSAADDPAGLAIS (listed as Lysinibacillus fusiformis) [SEQ ID NO: 583]
[1]; [9]
  Avg. Activity (%) Soybean (297 R4) 100 nM polypeptide: 111.6%
[2]; [9]
  Avg. Activity (%) Corn (5828 YX) 5 nM polypeptide: 59.3%

## NRLSSGKRINSAADDAAGLAIA [SEQ ID NO: 295]
[1]; [9]
  Avg. Activity (%) Soybean (297 R4) 100 nM polypeptide: 83.0%
[1]; [10]
  Avg. Activity (%) Soybean (297 R4) 100 nM polypeptide: 97.59%
[2]; [9]
  Avg. Activity (%) Corn (5828 YX) 5 nM polypeptide: 134.7%
[2]; [10]
  Avg. Activity (%) Corn (5828 YX) 5 nM polypeptide: 142.53%

## NQGISEKQLDQLLTQLIMALLQQ (Xanthomonas species) [HpaG-like]
[3]; heat and water deficit stress
  growth phenotype vs control: not stressed environments
[3]; non-stressed environment
  growth phenotype vs control: improved growth phenotype in normal environments

## LRLSSGYRINSAADDAAGLAIS (listed as Lysinibacillus sp.) [SEQ ID NO: 291]
[1]; [9]
  Avg. Activity (%) Soybean (297 R4) 100 nM polypeptide: 64.1%
[2]; [9]
  Avg. Activity (%) Corn (5828 YX) 5 nM polypeptide: 26.6%

## EKLSSGQRINSASDDAAGLAIS (listed as Bacillus aryabhattai) [SEQ ID NO: 289]
[1]; [9]
  Avg. Activity (%) Soybean (297 R4) 100 nM polypeptide: 42.2%
[2]; [9]
  Avg. Activity (%) Corn (5828 YX) 5 nM polypeptide: 27.1%

## A.spp.FlgII28: FlgII-28 from Aneurinibacillus sp. XH2 (EIHEMLQRMRELAVQAANGTYSDKDKKA; listed as Aneurinibacillus sp.)
[6]; 5 nM
  ROS response: equally low ROS response

## P spp.Flg22-B6 (GKLSSGLRINGASDDAAGLAIS)
[1]; [9]
  Avg. Activity (%) Soybean (297 R4) 100 nM polypeptide: 112.5%
[1]; [10]
  Avg. Activity (%) Soybean (297 R4) 100 nM polypeptide: 132.95%
[2]; [9]
  Avg. Activity (%) Corn (5828 YX) 5 nM polypeptide: 135.3%
[2]; [10]
  Avg. Activity (%) Corn (5828 YX) 5 nM polypeptide: 103.61%

## LRISSGYRINSAADDPAGLAIS (Lysinibacillus spp.) [SEQ ID NO: 582]
[1]; [9]
  Avg. Activity (%) Soybean (297 R4) 100 nM polypeptide: 117.9%
[2]; [9]
  Avg. Activity (%) Corn (5828 YX) 5 nM polypeptide: 60.1%

## EKLSSGFRINRAGDDAAGLAIS (Lysinibacillus macroides) [SEQ ID NO: 584]
[2]; Table 33, RLU relative to native Bt.4Q7Flg22 = 100, listed as Lm.Flg22-L6
  Avg. Activity (%) Corn (5828 YX) 5 nM polypeptide: 58.7% and 33.7%

## RI Bt.4Q7Flg22: retro-inverso form of Bt.4Q7Flg22 ([dA][dI][dA][dL]G[dA][dA][dD][dD][dS][dA][dS][dN][dI][dR][dK]G[dS][dS][dL][dR][dD]; listed as Bacillus thuringiensis)
[7]
  average yield increase vs non-treated control: 11.90 Bu/Ac
  win rate: 70%
[8]; R2 foliar 0.33 Fl. oz/Ac
  win rate: 64%
[8]; R2 foliar, Flg22 polypeptides 0.33 Fl. oz/Ac, RHPP 4 Fl. oz/Ac
  average yield change vs non-treated control: 0.90 Bu/Ac
[4]; second study, 12 locations
  yield advantage: 0.5 Bu/Ac
[5]; third study, 12 locations
  win rate: 55%
  yield benefit: 0.3 Bu/Ac

## DRLSSGKRINSASDDPAGLAIA [Syn05Flg22]
[1]; soybean leaf discs, Table 73 data set
  % Activity (compared to Syn0Flg22; SEQ ID NO: 578): 100.0%
[1]; soybean leaf discs, from best-fit regression, Table 73 data set
  Polypeptide Concentration (nM) for 5 × 10^4 total RLU production: 89.8 nM
[2]; corn leaf slices
  % Activity (compared to unmodified Syn05Flg22 (SEQ ID NO: 578)): 100.0%
[2]; corn leaf slices, from best-fit regression
  Polypeptide Concentration (nM) for 5 × 10^4 total RLU production: 19.5 nM

## Bp.Flg22 (TRLSSGKRINSAADDAAGLAIS)
[1]; [9]
  Avg. Activity (%) Soybean (297 R4) 100 nM polypeptide: 67.2%
[2]; [9]
  Avg. Activity (%) Corn (5828 YX) 5 nM polypeptide: 111.2%

## Bt 4Q7Flg 22 (DRLSSGKRINSASDDAAGLAIA; listed as Bacillus thuringiensis)
[3]; corn Beck's 5828 YH, 1 μM foliar, 3 to 5 weeks
  Δ Height (cm): 5.40 cm
[3]; corn Beck's 5828 YH, 1 μM foliar, vs water control
  Δ Height Normalized as a percentage of control height: +3.7%
